Target: T1, Vibrio fischeri luciferase (VfLuc) (Aliivibrio fischeri, UniProt P19907)
T1 construct: gene luxA; commercial Vibrio fischeri luciferase (Sigma-Aldrich L8507), with FMN reductases; with luciferase beta subunit (LuxB)
T1 sequence (P19907 1-354): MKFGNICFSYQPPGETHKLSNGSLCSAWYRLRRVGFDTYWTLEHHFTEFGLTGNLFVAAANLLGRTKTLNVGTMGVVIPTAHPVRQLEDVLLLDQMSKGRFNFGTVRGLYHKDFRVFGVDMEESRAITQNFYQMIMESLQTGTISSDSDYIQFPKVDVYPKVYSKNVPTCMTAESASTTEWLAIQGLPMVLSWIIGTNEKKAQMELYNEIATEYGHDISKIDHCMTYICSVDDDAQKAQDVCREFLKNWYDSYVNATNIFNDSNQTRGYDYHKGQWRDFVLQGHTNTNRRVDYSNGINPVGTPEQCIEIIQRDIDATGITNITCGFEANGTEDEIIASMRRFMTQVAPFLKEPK
T1 sequence (P19908 1-326 partner): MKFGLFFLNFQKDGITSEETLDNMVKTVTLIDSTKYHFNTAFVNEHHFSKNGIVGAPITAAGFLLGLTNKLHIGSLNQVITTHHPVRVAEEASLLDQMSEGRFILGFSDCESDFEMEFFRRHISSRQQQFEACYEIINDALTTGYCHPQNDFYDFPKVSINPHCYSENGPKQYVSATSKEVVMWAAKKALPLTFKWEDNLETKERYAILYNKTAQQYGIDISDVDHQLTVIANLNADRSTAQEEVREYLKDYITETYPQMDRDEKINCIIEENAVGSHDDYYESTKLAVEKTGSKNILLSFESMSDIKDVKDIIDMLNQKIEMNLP
Test: luminescence enzyme assay, coupled with FMN reductase, 12-point titration
Type: biochemical

IC50: 191 µM
Compound: COC(=O)/C=C/OC1c2ccccc2-c2ccccc21 [SAM461, (E)-Methyl 3-((9H-fluoren-9-yl)oxy)acrylate]

— PMC6236115, “The 9H-Fluoren Vinyl Ether Derivative SAM461 Inhibits Bacterial Luciferase Activity and Protects Artemia franciscana From Luminescent Vibriosis” (Frontiers in Cellular and Infection Microbiology, 2018)
